Reference: patent publication US20210007356A1, “IMIDE DERIVATIVE AND FUNGICIDE CONTAINING SAID DERIVATIVE AS ACTIVE INGREDIENT” (HOKKO CHEMICAL INDUSTRY CO., LTD., priority 2018, published 2021)
Where two headings read alike, the source gives them in different places.

Legend:
[1] = system: rice blast fungus (Pyricularia grisea); type: in vivo; conditions: flowable 5,000 ppm, 50 mL irrigation of nursery box, paddy rice; inoculated after 3 weeks; 7 days after inoculation
[2] = system: barley powdery mildew fungus (Erysiphe graminis); assay: Test Example 2: control effect against barley powdery mildew by foliage application; type: in vivo; conditions: wettable powder diluted to 100 ppm, 10 mL per pot foliage spray on barley; inoculated day after; 7 days after inoculation
[3] = system: rice blast fungus (Pyricularia grisea); type: in vivo; conditions: flowable 1,000 ppm, 1 mL dripped in paddy water, inoculated after 1 week, 7 days after inoculation
[4] = system: rice blast fungus (Pyricularia grisea); type: in vivo; conditions: 5 g of granule on nursery box, paddy rice; inoculated after 3 weeks; 7 days after inoculation
[5] = system: rice sheath blight fungus (Thanatephorus cucumeris); assay: Test Example 6: control effect against rice sheath blight by box treatment (flowable formulation); conditions: flowable 5,000 ppm, 50 mL irrigation of nursery box, paddy rice; inoculated after 3 weeks; 7 days after inoculation
[6] = system: rice sheath blight fungus (Thanatephorus cucumeris); assay: Test Example 8: control effect against rice sheath blight by box treatment (granule); conditions: 5 g of granule on nursery box, paddy rice; inoculated after 3 weeks; 7 days after inoculation
[7] = system: rice sheath blight fungus (Thanatephorus cucumeris); assay: Test Example 10: control effect against rice sheath blight by water surface application (flowable formulation); conditions: flowable 1,000 ppm, 1 mL dripped in paddy water, inoculated after 1 week, 7 days after inoculation
Protocol: Control value (%)=[1−(lesion height in sprayed plot/lesion height in unsprayed plot)]×100 (d)
By dripping treatment in paddy water, 1 mL of a diluted solution (1,000 ppm) of a flowable prepared according to Formulation Example-3 was applied to a 5-leaf-stage paddy rice (variety: Asahi) seedling (5 seedlings/stub, one stub/pot) grown in a pot ( 1/10000 are in size) filled with paddy soil (flooded) within a greenhouse. After growing for 1 week within a greenhouse, a culture of rice sheath blight fungus (Thanatephorus cucumeris) grown in advance on a rice straw medium was inoculated into the root of the formulation-treated paddy rice, and disease development was promoted in an artificial weather chamber at 26° C. (relative humidity=100%). Seven days after the inoculation, the rice sheath blight lesion height (height from the root) was examined, and the control value (%) was calculated according to formula (d). […] This test was performed with three replications, each consisting of one plot and one pot, per one formulation plot, and its average evaluation value of control effect was determined.

| SMILES | evaluation value of control effect (from control value, number of lesions) [1] | evaluation value of control effect (from control value, lesion area percentage) [2] | evaluation value of control effect (from control value, number of lesions) [3] | evaluation value of control effect (from control value, number of lesions) [4] | evaluation value of control effect (from control value, lesion height) [5] | evaluation value of control effect (from control value, lesion height) [6] | evaluation value of control effect (from control value, lesion height) [7] |
| --- | --- | --- | --- | --- | --- | --- | --- |
| Cc1nnsc1C(=O)N(C(=O)c1c(C)nn(C)c1F)c1ccccc1C(C)CC(C)C (stereo not shown) [1-158] | 5 | 4 | 5 | 5 |  |  |  |
| CC(C)CC(C)c1ccccc1N(C(=O)c1cn(C)nc1C(F)F)C(=O)c1c(C(F)F)nn(C)c1Cl (stereo not shown) [1-354] |  | 5 |  |  | 5 | 5 | 5 |
| Cn1cc(C(=O)N(C(=O)c2cccc3nnsc23)c2ccccc2-c2cc(F)c(F)c(F)c2)c(C(F)F)n1 [1-369] |  | 4 |  |  | 5 | 5 | 5 |
| Cc1nc(C(F)F)c(C(=O)N(C(=O)c2cn(C)nc2C(F)F)c2ccccc2-c2cc(F)c(F)c(F)c2)s1 [1-372] |  | 4 |  |  | 5 | 5 | 5 |
| Cn1cc(C(=O)N(C(=O)c2cc(Cl)c(Cl)s2)c2ccccc2-c2cc(F)c(F)c(F)c2)c(C(F)F)n1 [1-373] |  | 4 |  |  | 5 | 5 | 5 |
| CC(C)CC(C)c1sccc1N(C(=O)c1cn(C)nc1C(F)(F)F)C(=O)c1snc(Cl)c1Cl (stereo not shown) [5-1, 3,4-Dichloro-N-{2-(1,3-dimethylbutyl)-3-thienyl}-N-{1-methyl-3-(trifluoromethyl)pyrazole-4-carbonyl}isothiazole-5-carboxamide] | 5 | 5 | 5 | 5 |  |  |  |
| CCC(C)Oc1cccc(N(C(=O)c2sc(C)nc2C(F)F)C(=O)c2snc(Cl)c2Cl)c1C (stereo not shown) [7-125] | 5 | 4 | 5 | 5 |  |  |  |
| Cc1nc(C(F)F)c(C(=O)N(C(=O)c2cccnc2C(F)F)c2ccccc2C(C)CC(C)C)s1 (stereo not shown) [13-20] | 5 | 4 |  |  |  |  |  |
| Cc1nnsc1C(=O)N(C(=O)c1cn(C)nc1C(F)F)c1cccc2c1C(C)CC2(C)C (stereo not shown) [25-47] |  | 4 |  |  | 5 | 5 | 5 |
| CCc1nc(C(F)F)c(C(=O)N(C(=O)c2cn(C)nc2C(F)F)c2cccc3c2C(C)CC3(C)C)s1 (stereo not shown) [25-85] |  | 4 |  |  | 5 | 5 | 5 |
| Cc1nc(C(F)(F)F)c(C(=O)N(C(=O)c2cn(C)nc2C(F)F)c2cccc3c2C(C)OC3(C)C)s1 (stereo not shown) [25-92] |  | 4 |  |  | 5 | 5 | 5 |
| CC1CC(C)(C)c2cccc(N(C(=O)c3cn(C)nc3C(F)F)C(=O)c3onc(Cl)c3Cl)c21 (stereo not shown) [25-113] |  | 4 |  |  | 5 | 5 | 5 |
| Cc1nnsc1C(=O)N(C(=O)c1c(C)nn(C)c1Cl)c1cccc2c1C(C)OC2(C)C (stereo not shown) [25-116] |  | 4 |  |  | 5 | 5 | 5 |
| Cc1nn(C)c(Cl)c1C(=O)N(C(=O)c1cccc2nnsc12)c1cccc2c1C(C)OC2(C)C (stereo not shown) [25-118] | 5 |  | 5 | 5 |  |  |  |
| Cc1nn(C)c(Cl)c1C(=O)N(C(=O)c1onc(Cl)c1Cl)c1cccc2c1C(C)OC2(C)C (stereo not shown) [25-124] |  | 4 |  |  | 5 | 5 | 5 |
| Cc1nc(C(F)F)c(C(=O)N(C(=O)c2snc(Cl)c2Cl)c2cccc3c2C(C)CC3(C)C)s1 (stereo not shown) [26-8] |  | 5 |  |  | 5 | 5 | 5 |
| Cc1nc(C(F)F)c(C(=O)N(C(=O)c2sc(C)nc2C(F)F)c2cccc3c2C(C)CC3(C)C)s1 (stereo not shown) [26-77] |  | 4 |  |  | 5 | 5 | 5 |
| Cc1nc(C(F)F)c(C(=O)N(C(=O)c2cc(Cl)c(Cl)s2)c2cccc3c2C(C)CC3(C)C)s1 (stereo not shown) [26-87] | 5 |  | 5 | 5 |  |  |  |
| Cc1nc(C(F)F)c(C(=O)N(C(=O)c2cc(Cl)no2)c2cccc3c2C(C)CC3(C)C)s1 (stereo not shown) [26-88] |  | 4 |  |  | 5 | 5 | 5 |
| CC1CC(C)(C)c2cccc(N(C(=O)c3cccnc3C(F)F)C(=O)c3snc(Cl)c3Cl)c21 (stereo not shown) [27-3] |  | 5 |  |  | 5 | 5 | 5 |
